Tests used:
H4 neuroglioma cells = experiment: DIC imaging of endolysosomal (vacuole) phenotype in H4 neuroglioma cells; assay type: cell-based, human
Description: FIG. 4: Left: DIC images of H4 transduced with either non-targeting shRNA (control) or hairpin targeted to the PIKFYVE gene (shPIKFYVE). Right: Viability of H4 cells after the induction of either control or PIKFYVE shRNA with doxycycline.
(§1) PIKfyve produces the lipid products PI(3,5)P2 and PI5P, which in turn serve to establish membrane identity and control endolysosomal dynamics. Studies have shown that the PI(3,5)P2 depletion arising from inhibition of PIKfyve produces a swollen endolysosome phenotype. […] This phenotype was reversible, and cell lines reverted to normal appearance within 3-4 days after drug removal.

[1] = system: comprehensive panel of kinases (456 kinases); experiment: Kinase panel binding screen (456 kinases, PIKfyve not included); settings: screening concentration 1 μM
Description: Next, apilimod was screened against a comprehensive panel of kinases (PIKfyve not included).

[2] = system: PI(3,5)P2 in H4 neuroglioma cells; experiment: Immunostaining of PI(3,5)P2 in H4 neuroglioma cells; assay type: cell-based, human; settings: after 24 h
Description: as §1

Cc1cccc(/C=N/Nc2cc(N3CCOCC3)nc(OCCc3ccccn3)n2)c1 [apilimod]
endolysosomal (vacuole) phenotype (H4 neuroglioma cells; H4 neuroglioma cells, 100 nM apilimod, 24 hrs (FIG. 3)): striking swollen endolysosomal (vacuole) phenotype | time to revert to normal appearance after drug removal (H4 neuroglioma cells; after drug removal): 3 to 4 days | binding to kinases of the panel [1]: did not bind to any of the 456 kinases tested | decrease of PI(3,5)P2 [2]: ~70%

Reference: patent US20180036420A1, “METHODS FOR ENHANCING THE DELIVERY OF MOLECULES ACROSS THE BLOOD BRAIN BARRIER” (LAM Therapeutics, Inc., priority 2016, published 2018)
